Measured values taken from patent US6653081B2, “Methods for monitoring antiretroviral therapy and guiding therapeutic decision in the treatment of HIV/AIDS” (ViroLogic, Inc., priority 2000, dated 2003).

Legend:
RTV-010829/270I = assay: Phenotypic susceptibility assay, RTV-010829/270I; assay type: cell-based, HIV; details: RTV-010829 with I270M reverted
Source text: (§1) The resistance test vectors containing a functional luciferase gene cassette were constructed and host cells were transfected with the resistance test vector DNA. The resistant test vectors contained patient-derived reverse transcriptase and protease sequences that were either susceptible or resistant to the antiretroviral agents, such as nucleoside reverse transcriptase inhibitors, (NRTIs) non-nucleoside reverse transcriptase inhibitors […] protease inhibitors. The resistance test vector viral particles produced by transfecting the resistance test vector DNA into host cells, either in the presence or absence of PRIs, were used to infect target host cells grown either in the absence of NRTIs or NNRTIs, or in the presence of increasing concentrations of the drug. The amount of luciferase activity produced in infected target host cells in the presence of varying concentrations of drug was compared to the amount of luciferase produced in infected target host cells in the absence of drug. “Drug resistance” was measured as the amount of drug required to inhibit by 50% the luciferase activity detected in the absence of drug (inhibitory concentration 50%, IC50). The IC50 values were determined by plotting percent drug inhibition vs. log10 drug concentration. Stimulation of viral replication was measured as the percent increase in luciferase activity detected when infection occurs in the presence of drug as compared to in the absence of drug.
(§2) Host cells were seeded in 10-cm-diameter dishes and were transfected several days after plating with resistance test vector plasmid DNA and the envelope expression vector. Transfections were performed using a calcium-phosphate precipitation procedure. The cell culture media containing the DNA precipitate was replaced with fresh medium, from one to 24 hours, after transfection. Cell culture media containing resistance test vector viral particles was harvested one to four days after transfection and was passed through a […] filter before being used to infect target host cells, or being stored at −80° C. HIV capsid protein (p24) levels in the harvested cell culture media were determined by an EIA method as described by the manufacturer (SAIC; Frederick, Md.). Before infection, target cells (293 and 293/T) were plated in cell culture media. Control infections were performed using cell culture media from mock transfections (no DNA) or transfections containing the resistance test vector plasmid DNA without the envelope expression plasmid. One to three or more days after infection, the media was removed and cell lysis buffer (Promega) was added to each well. Cell lysates were assayed for luciferase activity (FIG. 3). The inhibitory effect of the drug was determined using the following equation:
(§3) % luciferase inhibition=1−(RLUluc[drug]÷RLUluc)×100
(§4) where RLUluc [drug] is the Relative Light Unit of luciferase activity in infected cells in the presence of drug, and RLUluc is the Relative Light Unit of luciferase activity in infected cells in the absence of drug. IC50values were obtained from the sigmoidal curves that were generated from the data by plotting the percent inhibition of luciferase activity vs. the log10 drug concentration. The percent luciferase stimulation is the negative of the % inhibition calculated using the formula above.
(§5) A resistance test vector containing all of the mutations present in RTV-010829 except for the V245E mutation (RTV-010829/245V) was constructed and tested using the phenotypic assay described earlier. The results were compared to those determined using the parent RTV-010829. We determined the pattern of phenotypic susceptibility to the NNRTIs, delavirdine, nevirapine and efavirenz, in the reverted vector RTV-010829/245V. […] A resistance test vector containing all of the mutations present in RTV-010829 except for the I270M (RTV-010829/270I) was constructed and tested using the phenotypic assay described earlier. […]

RTV-I270S = assay: Phenotypic susceptibility assay, RTV-I270S; assay type: cell-based, HIV-1; details: site-directed I270S alone
Source text: as §1, §2, §3, §4
A resistance test vector containing all of the mutations present in […] except for the I270S (RTV-013522/270I) was constructed and tested using the phenotypic assay described earlier. The results were compared to those determined using the parent RTV-013522. We determined the pattern of phenotypic susceptibility to the NNRTIs, delavirdine, nevirapine and efavirenz, in the reverted vector RTV-013522/270I. […] In this patient sample the correlation of drug-dependent stimulation of viral replication with the mutation at I270S is very striking. […]

RTV-014451 = assay: Phenotypic susceptibility assay, RTV-014451; assay type: cell-based, HIV; details: patient 014451, week 32; for decrease in susceptibility: K101E, V106M, G190A on 241 backbone
Source text: as §1, §2, §3, §4
Resistance test vectors were constructed as described in Example 1 from virus samples obtained from an individual patient at two separate time points separated by a 32-week period. The prior and current treatment regimens are unknown. Isolation of viral RNA and RT/PCR was used to generate patient derived segments (PDS) that comprised viral sequences coding for all of PR and aa […] of RT from […]. The PDS were inserted into an indicator gene viral vector to generate resistance test vectors designated RTV-014459 and RTV-014451. […]

RTV-309 = assay: Phenotypic susceptibility assay, RTV-309; assay type: cell-based, HIV; details: patient 1033 sample before any NNRTI
Source text: The resistance test vectors containing a functional luciferase gene cassette were constructed and host cells were transfected with the resistance test vector DNA. The resistant test vectors contained patient-derived reverse transcriptase and protease sequences that were either susceptible or resistant to the antiretroviral agents, such as nucleoside reverse transcriptase inhibitors, (NRTIs) non-nucleoside reverse transcriptase inhibitors […] protease inhibitors. The resistance test vector viral particles produced by transfecting the resistance test vector DNA into host cells, either in the presence or absence of PRIs, were used to infect target host cells grown either in the absence of NRTIs or NNRTIs, or in the presence of increasing concentrations of the drug. The amount of luciferase activity produced in infected target host cells in the presence of varying concentrations of drug was compared to the amount of luciferase produced in infected target host cells in the absence of drug. […] The IC50 values were determined by plotting percent drug inhibition vs. log10 drug concentration. Stimulation of viral replication was measured as the percent increase in luciferase activity detected when infection occurs in the presence of drug as compared to in the absence of drug.
Host cells were seeded in 10-cm-diameter dishes and were transfected several days after plating with resistance test vector plasmid DNA and the envelope expression vector. […] HIV capsid protein (p24) levels in the harvested cell culture media were determined by an EIA method as described by the manufacturer (SAIC; Frederick, Md.). […] The inhibitory effect of the drug was determined using the following equation: […]
where RLUluc [drug] is the Relative Light Unit of luciferase activity in infected cells in the presence of drug, and RLUluc is the Relative Light Unit of luciferase activity in infected cells in the absence of drug. […] The percent luciferase stimulation is the negative of the % inhibition calculated using the formula above. […]

RTV-011073 = assay: Phenotypic susceptibility assay, RTV-011073; assay type: cell-based, HIV; details: patient 011073; for decrease in susceptibility: V241S, K103N, I135T
Source text: as §1, §2, §3, §4
A resistance test vector was constructed as described in Example 1 from a virus sample obtained from patient 011073. The prior and current treatment regimens are unknown. Isolation of viral RNA and RT/PCR was used to generate a patient derived segment (PDS) that comprised viral sequences coding for all of PR and aa 1-313 of RT. The PDS was inserted into an indicator gene viral vector to generate a resistance test vector designated RTV-011073. RTV-011073 was then tested in a phenotypic assay to determine accurately and quantitatively the level of susceptibility to a panel of anti-retroviral drugs. […]

RTV-012090 = assay: Phenotypic susceptibility assay, RTV-012090; assay type: cell-based, HIV; details: patient CCTG-1025, week 48; for decrease in susceptibility: K101E, K103N, G190S, M230L
Source text: as §1, §2, §3, §4
Resistance test vectors were constructed as described in Example 1 from virus samples obtained from an individual patient at two separate time points over a 48-week period. […]

RTV-010829/245V = assay: Phenotypic susceptibility assay, RTV-010829/245V; assay type: cell-based, HIV; details: RTV-010829 with V245E reverted
Source text: as §1, §2, §3, §4, §5

CC(C)Nc1cccnc1N1CCN(C(=O)c2cc3cc(NS(C)(=O)=O)ccc3[nH]2)CC1 [delavirdine]
drug-dependent stimulation of viral replication (RTV-010829/270I): ~40% | reductions in susceptibility compared to wild type control RTV (RTV-010829/270I): 247 fold | drug-dependent stimulation of viral replication (RTV-I270S): ~60% | reductions in susceptibility compared to wild type control RTV (RTV-I270S): 13 fold | drug-dependent stimulation of viral replication (RTV-014451): ~90% | decrease in susceptibility (RTV-014451): 41 fold | reduction in susceptibility (RTV-309): wild type pattern of susceptibility | drug-dependent stimulation of viral replication (RTV-011073): ~90% | decrease in susceptibility (RTV-011073): > 250 fold | drug-dependent stimulation of viral replication (RTV-012090): ~30% | decrease in susceptibility (RTV-012090): 144 fold | drug-dependent stimulation of viral replication (RTV-010829/245V): ~60% | reductions in susceptibility compared to wild type control RTV (RTV-010829/245V): 182 fold

O=C1Nc2ccc(Cl)cc2[C@@](C#CC2CC2)(C(F)(F)F)O1 [efavirenz]
drug-dependent stimulation of viral replication (RTV-010829/270I): ~20% | reductions in susceptibility compared to wild type control RTV (RTV-010829/270I): 145 fold | drug-dependent stimulation of viral replication (RTV-I270S): ~40% | reductions in susceptibility compared to wild type control RTV (RTV-I270S): 4 fold | drug-dependent stimulation of viral replication (RTV-014451): ~70% | decrease in susceptibility (RTV-014451): > 450 fold | reduction in susceptibility (RTV-309): wild type pattern of susceptibility | drug-dependent stimulation of viral replication (RTV-011073): ~80% | decrease in susceptibility (RTV-011073): > 450 fold | drug-dependent stimulation of viral replication (RTV-012090): ~40% | decrease in susceptibility (RTV-012090): > 450 fold | drug-dependent stimulation of viral replication (RTV-010829/245V): ~60% | reductions in susceptibility compared to wild type control RTV (RTV-010829/245V): 189 fold

Cc1ccnc2c1NC(=O)c1cccnc1N2C1CC1 [nevirapine]
drug-dependent stimulation of viral replication (RTV-010829/270I): ~30% | reductions in susceptibility compared to wild type control RTV (RTV-010829/270I): 341 fold | drug-dependent stimulation of viral replication (RTV-I270S): ~60% | reductions in susceptibility compared to wild type control RTV (RTV-I270S): 15 fold | drug-dependent stimulation of viral replication (RTV-014451): ~100% | decrease in susceptibility (RTV-014451): > 600 fold | reduction in susceptibility (RTV-309): 3 fold | drug-dependent stimulation of viral replication (RTV-011073): ~70% | decrease in susceptibility (RTV-011073): > 600 fold | drug-dependent stimulation of viral replication (RTV-012090): ~80% | decrease in susceptibility (RTV-012090): > 600 fold | drug-dependent stimulation of viral replication (RTV-010829/245V): ~80% | reductions in susceptibility compared to wild type control RTV (RTV-010829/245V): 505 fold
